The text below walks through data of patent publication US20080227798A1, “POLYMORPHS OF SUCCINATE SALT OF 2-[6-(3-AMINO-PIPERIDIN-1-YL)-3-METHYL-2,4-DIOXO-3,4-DIHYDRO-2H-PYRIMIDIN-1-YLMETHY]-4-FLUOR-BENZONITRILE AND METHODS OF USE THEREFOR” (priority 2006, published 2008).

Holding throughout (type): physicochemical
Series [1] is described as follows: Vapor stress of amorphous solid. How it is done:
Amorphous Compound I was placed in acetone, ethanol, and water vapor chambers for up to eight days. The solids were collected and analyzed by XRPD for form identification.
Solids of Amorphous Form of Compound I were stressed in acetone and ethanol vapor stress chambers for 4 days. Other aliquots of the solids were stressed in a water vapor chamber for 4 days and 8 days. The remaining solids were analyzed by XRPD.

The nature of series [2]: Approximate solubility of Compound I in different solvents. The settings on record: for solubility: thermodynamic from solid, ambient temperature, approximate. The procedure:
Compound I prepared by the method described in Example 1 was used for the solubility study. Solvents and other reagents were of ACS or HPLC grade and were used as received.
A weighed sample (typically about 20-25 mg) of Compound I was treated at ambient temperature with aliquots (typically ≧50 μL) of the test solvent with sonication between additions. Solvents were either reagent or HPLC grade. Solubility was estimated from the total volume of solvent used to obtain a clear solution, as determined by visual inspection. Solubility is expressed as “less than” when dissolution was not observed. If dissolution occurred after the last aliquot was added then solubility is expressed as “greater than or equal to” (≧). The actual solubilities may be greater than determined, due to over addition of solvent (large aliquots) or slow dissolution rates. Approximate solubilities of Compound I are summarized in Table A. The solubility values have been rounded to the nearest whole number and are reported to the nearest mg/mL.

Series [3] in a line: Relative humidity stressing experiments. The conditions noted are these: conditions not given. An excerpt:
Samples of Compound I were placed uncovered in approximately 58%, 88%, and 97% relative humidity jars. The samples were stored in the jars for approximately 8 days. The solids were collected and analyzed by XRPD for form identification. […] An aliquot of a mixture of Form A+B was stressed at 88% relative humidity for 23 days. Amorphous Form was stressed at 58% and 88% relative humidity for 23 days.

Series [4] is described as follows: Moisture sorption/desorption analysis. How it is done:
Moisture sorption/desorption data were collected on a VTI SGA-100 Vapor Sorption Analyzer. Sorption and desorption data were collected over a range of 5% to 95% relative humidity (RH) at 10% RH intervals under a nitrogen purge. Samples were not dried prior to analysis. Equilibrium criteria used for analysis were less than 0.0100% weight change in 5 minutes, with a maximum equilibration time of 3 hours if the weight criterion was not met. Data were not corrected for the initial moisture content of the samples. NaCl and PVP were used as calibration standards. Moisture sorption and desorption study was conducted on a sample of Form A+B. The sample was prepared by crashed cooling crystallization (Example 3, section A.6) of the polymorphic forms from a ethanol:water (95:5) solution of Compound I. The moisture sorption and desorption study was conducted according to the procedures outlined in Example 3, section B.10. The data collected is plotted in FIG. 13 and summarized in Table L. Moisture sorption and desorption study was conducted on a sample of Form E. The sample was prepared by solvent/antisolvent crystallization (Example 3, section A.7) by the addition of acetonitrile to Compound I in water. The moisture sorption and desorption study was conducted according to the procedures outlined in Example 3, section B.10. The data collected is plotted in FIG. 23 and summarized in Table M. Moisture sorption and desorption study was conducted on a sample of Amorphous Form. The sample was prepared by lyophilolization of a solution of Compound I in water (Example 3, section A.9). The moisture sorption and desorption study was conducted according to the procedures outlined in Example 3, section B.10.

Each structure is given as a SMILES string. Entries after “also recorded” stand apart in the source; their conditions may differ.

In the case of `Cn1c(=O)cc(N2CCC[C@@H](N)C2)n(Cc2ccccc2C#N)c1=O.O=C(O)CCC(=O)O` [Amorphous Solid of Compound I], the “Color/morphology after vapor stress” value in series [1] (Acetone vapor, 4 days) is given as “off white, irregular”; in series [1] (EtOH vapor, 4 days), “off white, irregular”; in series [1] (Water vapor, 4 days), “off white, irregular,”; in series [1] (Water vapor, 8 days), “white, irregular,”. For the same compound, the “Form after vapor stress (XRPD)” value in series [1] (Water vapor, 4 days) is recorded as “A + D”; in series [1] (Water vapor, 8 days), “low”.

Regarding `Cn1c(=O)cc(N2CCC[C@@H](N)C2)n(Cc2cc(F)ccc2C#N)c1=O` [Compound I, 2-[6-(3-amino-piperidin-1-yl)-3-methyl-2,4-dioxo-3,4-dihydro-2H-pyrimidin-1-ylmethyl]-4-fluoro-benzonitrile succinate], the solubility in series [2] (2-propanol:water (88:12), organic solvent or mixture, IPA:H2O (88:12)) is 11000 µg/mL; in series [2] (acetonitrile:water (85:15), organic solvent or mixture, ACN:H2O (85:15)), 101000 µg/mL; in series [2] (diethyl ether, organic solvent or mixture, di-Ethyl ether) it was less than 1000 µg/mL; in series [2] (ethanol:water (95:5), organic solvent or mixture, EtOH:H2O (95:5)), 5000 µg/mL; in series [2] (organic solvent or mixture, 1,4-Dioxane), less than 1000 µg/mL; in series [2] (organic solvent or mixture, 2-Propanol (IPA)), less than 1000 µg/mL. Moreover, the solubility in series [2] (organic solvent or mixture, Acetone) is 2000 µg/mL; in series [2] (organic solvent or mixture, Acetonitrile (ACN)), less than 1000 µg/mL; in series [2] (organic solvent or mixture, Dichloromethane (DCM)), less than 1000 µg/mL; in series [2] (organic solvent or mixture, Dimethyl Formamide (DMF)) it was 68000 µg/mL; in series [2] (organic solvent or mixture, Ethanol (EtOH)), 2000 µg/mL; in series [2] (organic solvent or mixture, Ethyl Acetate (EtOAc)) it was less than 1000 µg/mL. Also, the solubility in series [2] (organic solvent or mixture, Hexanes) was less than 1000 µg/mL; in series [2] (organic solvent or mixture, Methanol (MeOH)), 20000 µg/mL; in series [2] (organic solvent or mixture, Tetrahydrofuran (THF)), less than 1000 µg/mL; in series [2] (organic solvent or mixture, Toluene), less than 1000 µg/mL; in series [2] (organic solvent or mixture, Trifluoroethanol (TFE)), greater than 200000 µg/mL; in series [2] (Water (H2O)), 51000 µg/mL. For the same compound, the “Solubility (in words)” value in series [2] (most solvents, except DMF, methanol, TFE, water and water:solvent mixtures) is reported as “Poor solubility”.

On to `Cn1c(=O)cc(N2CCC[C@@H](N)C2)n(Cc2cc(F)ccc2C#N)c1=O.O=C(O)CCC(=O)O` [Form B], for which, in series [3], the “form change in additional relative humidity stressing studies” value is “converted to Form A”.

As for `Cn1c(=O)cc(N2CCC[C@@H](N)C2)n(Cc2cc(F)ccc2C#N)c1=O.O=C(O)CCC(=O)O` [Form E], the Weight % chg is −1.322% in series [4] (Samp RH 5.03%, 24.77° C., elapsed 730.6 min (desorption)); −1.268% in series [4] (Samp RH 5.23%, 24.77° C., elapsed 138.3 min); −1.187% in series [4] (Samp RH 14.89%, 24.78° C., elapsed 154.5 min (sorption)); −0.102% in series [4] (Samp RH 14.94%, 24.79° C., elapsed 557.2 min (desorption)); −1.074% in series [4] (Samp RH 24.87%, 24.78° C., elapsed 170.5 min (sorption)); −0.013% in series [4] (Samp RH 25.02%, 24.79° C., elapsed 543.5 min (desorption)). Also, the Weight % chg in series [4] (Samp RH 34.83%, 24.78° C., elapsed 184.5 min (sorption)) is −0.947%; in series [4] (Samp RH 35.13%, 24.79° C., elapsed 526.0 min (desorption)) it was 0.112%; in series [4] (Samp RH 35.22%, 24.77° C., elapsed 0.1 min (start)) it was 0.000%; in series [4] (Samp RH 44.87%, 24.78° C., elapsed 203.4 min (sorption)), −0.755%; in series [4] (Samp RH 45.03%, 24.78° C., elapsed 512.2 min (desorption)), 0.236%; in series [4] (Samp RH 55.04%, 24.79° C., elapsed 253.5 min (sorption)), −0.223%. The Weight % chg is given as 0.398% in series [4] (Samp RH 55.05%, 24.78° C., elapsed 499.6 min (desorption)); 0.325% in series [4] (Samp RH 65.05%, 24.78° C., elapsed 281.1 min (sorption)); 0.616% in series [4] (Samp RH 65.16%, 24.78° C., elapsed 487.4 min (desorption)); 0.608% in series [4] (Samp RH 74.87%, 24.78° C., elapsed 301.2 min (sorption)); 0.949% in series [4] (Samp RH 75.25%, 24.78° C., elapsed 471.9 min (desorption)); 1.410% in series [4] (Samp RH 84.67%, 24.79° C., elapsed 322.2 min (sorption)). Besides, the Weight % chg in series [4] (Samp RH 85.18%, 24.77° C., elapsed 452.4 min (desorption)) turned out to be 1.632%; in series [4] (Samp RH 94.73%, 24.78° C., elapsed 415.8 min (sorption)), 4.216%. In addition, the “weight loss on equilibration at 5% relative humidity” value in series [4] (equilibration at 5% RH) came to 1.3%. The “form by XRPD of the material remaining after the moisture sorption/desorption analysis” value in series [4] (post moisture sorption/desorption) is “a mixture of Form A and Form E; also recorded: A + small quantity of E”.

In general, solubility refers to the dissolved amount per volume that the medium holds.
